Assay results taken from patent US20090233845A1, “Methods and compositions for non-covalently enhanced receptor binding” (priority 2008, published 2009).

System: NIH/3T3 cells
Assay: Mitogenic assay on FGF-2-responsive cells (heparin control test, CellTiter AQueous One, OD 490 nm)
Format: cell-based
Protocol: We developed a mitogenic assay on cells responsive to FGF-2. The assay is run in the presence of a submaximal concentration of FGF-2 (10 ng/mL). […] At 72 h of incubation in the presence of 10 ng/mL of FGF-2, the addition of 10 μg/mL of heparin increased mitogenic activity by 58%.
Organic compounds of the invention may be assayed for their effect on FGF-2 stimulation of growth using this assay. […] For example, a “hit” can be defined as an increase in activity of >50%, in the presence of 10 ng/mL FGF-2 (with no added heparin).
The details of the assay are as follows.
1. Trypsinize cells. Remove a small aliquot of cell suspension for cell count and viability.
4. Transfer 80 μL of cell suspension to the appropriate wells of three 96-well tissue culture-treated plates.
5. Incubate plates at 37° C./5% CO2 for 18 hr.
Add 80 μL/well DMEM/0.1% BCS/1% Pen-Strep (0.1% BCS media), and incubate cells for 24 hr at 37° C./5% CO2.
A mass of 20 mg of heparin was dissolved in 2.0 mL of 0.1% BCS media for a final concentration of 10 mg/mL.
Preparation of 10× Heparin Solution: The 10 mg/mL heparin solution was diluted to 100 μg/mL by adding 50 μL of the 10 mg/mL solution to 4,950 μL of 0.1% BCS media.
A 1:10 intermediate dilution was prepared by adding 10 μL of 100 μg/mL FGF-2 stock to 90 μL of 1×PBS/0.5% BSA, for a final concentration of 10 μg/mL.
Preparation of 10×FGF-2: The 1:10 intermediate was further diluted by adding 50 μL to 4,950 μL of 0.1% BCS media, for a final concentration of 100 ng/mL. The 100 ng/mL FGF-2 solution was diluted by adding 500 μL to 4,500 μL of 0.1% BCS media, for a final concentration of 10 ng/mL.
6. 5× Heparin/FGF-2 Dilutions: Mix equal volumes of 10×FGF-2 (Steps 3 and 4) and 10× heparin stocks (Step 5) to create the 5× Treatment Intermediates as shown in Tables 3 and 4.
Add 20 μL of CellTiter AQueous One Solution to each of the treated wells.
Incubate for 1 hr at 37° C./5% CO2.

[1] = heparin 0.001 μg/mL, 1 ng/mL FGF-2, 24 hr
[2] = heparin 0.001 μg/mL, 1 ng/mL FGF-2, 48 hr
[3] = heparin 0.001 μg/mL, 1 ng/mL FGF-2, 72 hr
[4] = heparin 0.001 μg/mL, 10 ng/mL FGF-2, 24 hr
[5] = heparin 0.001 μg/mL, 10 ng/mL FGF-2, 48 hr
[6] = heparin 0.001 μg/mL, 10 ng/mL FGF-2, 72 hr
[7] = heparin 0.01 μg/mL, 1 ng/mL FGF-2, 24 hr
[8] = heparin 0.01 μg/mL, 1 ng/mL FGF-2, 48 hr
[9] = heparin 0.01 μg/mL, 1 ng/mL FGF-2, 72 hr
[10] = heparin 0.01 μg/mL, 10 ng/mL FGF-2, 24 hr
[11] = heparin 0.01 μg/mL, 10 ng/mL FGF-2, 48 hr
[12] = heparin 0.01 μg/mL, 10 ng/mL FGF-2, 72 hr
[13] = heparin 0.1 μg/mL, 1 ng/mL FGF-2, 24 hr
[14] = heparin 0.1 μg/mL, 1 ng/mL FGF-2, 48 hr
[15] = heparin 0.1 μg/mL, 1 ng/mL FGF-2, 72 hr
[16] = heparin 0.1 μg/mL, 10 ng/mL FGF-2, 24 hr
[17] = heparin 0.1 μg/mL, 10 ng/mL FGF-2, 48 hr
[18] = heparin 0.1 μg/mL, 10 ng/mL FGF-2, 72 hr
[19] = heparin 1 μg/mL, 1 ng/mL FGF-2, 24 hr
[20] = heparin 1 μg/mL, 1 ng/mL FGF-2, 48 hr
[21] = heparin 1 μg/mL, 1 ng/mL FGF-2, 72 hr
[22] = heparin 1 μg/mL, 10 ng/mL FGF-2, 24 hr
[23] = heparin 1 μg/mL, 10 ng/mL FGF-2, 48 hr
[24] = heparin 1 μg/mL, 10 ng/mL FGF-2, 72 hr
[25] = heparin 10 μg/mL, 1 ng/mL FGF-2, 24 hr
[26] = heparin 10 μg/mL, 1 ng/mL FGF-2, 48 hr
[27] = heparin 10 μg/mL, 1 ng/mL FGF-2, 72 hr
[28] = heparin 10 μg/mL, 10 ng/mL FGF-2, 24 hr
[29] = heparin 10 μg/mL, 10 ng/mL FGF-2, 48 hr
[30] = heparin 10 μg/mL, 10 ng/mL FGF-2, 72 hr

With “FGF-2: basic fibroblast growth factor (bFGF, FGF-2), receptor-binding ligand” the “Mean OD490” value (1 ng/mL FGF-2, 0 μg/mL heparin, 24 hr) was 0.465, the “Mean OD490” value (1 ng/mL FGF-2, 0 μg/mL heparin, 48 hr) was 0.197 and the “Mean OD490” value (1 ng/mL FGF-2, 0 μg/mL heparin, 72 hr) was 0.199. The “Mean OD490” value (10 ng/mL FGF-2, 0 μg/mL heparin, 24 hr) was 0.898, the “Mean OD490” value (10 ng/mL FGF-2, 0 μg/mL heparin, 48 hr) was 0.661 and the “Mean OD490” value (10 ng/mL FGF-2, 0 μg/mL heparin, 72 hr) was 0.381. For the same substance, the “Mean OD490” value (assay control, 10 ng/mL FGF-2, 24 hr) was 0.884, the “Mean OD490” value (assay control, 10 ng/mL FGF-2, 48 hr) was 0.737 and the “Mean OD490” value (assay control, 10 ng/mL FGF-2, 72 hr) was 0.401.

With Heparin the “Mean OD490” value [1] was 0.477, the “Percent Difference from 0 μg/mL Heparin Mean OD490” value [1] was 2.6% and the “Mean OD490” value [2] was 0.222. For the same substance, the “Percent Difference from 0 μg/mL Heparin Mean OD490” value [2] was 12.7%, the “Mean OD490” value [3] was 0.208 and the “Percent Difference from 0 μg/mL Heparin Mean OD490” value [3] was 4.5%. The “Mean OD490” value [4] was 0.912, the “Percent Difference from 0 μg/mL Heparin OD490” value [4] was 1.6% and the “Mean OD490” value [5] was 0.641. For the same substance, the “Percent Difference from 0 μg/mL Heparin OD490” value [5] was −3.0%, the “Mean OD490” value [6] was 0.416 and the “Percent Difference from 0 μg/mL Heparin OD490” value [6] was 9.2%. For the same substance, the “Mean OD490” value [7] was 0.430, the “Percent Difference from 0 μg/mL Heparin Mean OD490” value [7] was −7.5% and the “Mean OD490” value [8] was 0.200. The “Percent Difference from 0 μg/mL Heparin Mean OD490” value [8] was 1.5%, the “Mean OD490” value [9] was 0.199 and the “Percent Difference from 0 μg/mL Heparin Mean OD490” value [9] was 0.0%. For the same substance, the “Mean OD490” value [10] was 0.859, the “Percent Difference from 0 μg/mL Heparin OD490” value [10] was −4.3% and the “Mean OD490” value [11] was 0.641. For the same substance, the “Percent Difference from 0 μg/mL Heparin OD490” value [11] was −3.0%, the “Mean OD490” value [12] was 0.417 and the “Percent Difference from 0 μg/mL Heparin OD490” value [12] was 9.4%. For the same substance, the “Mean OD490” value [13] was 0.419, the “Percent Difference from 0 μg/mL Heparin Mean OD490” value [13] was −9.9% and the “Mean OD490” value [14] was 0.226. The “Percent Difference from 0 μg/mL Heparin Mean OD490” value [14] was 14.7%, the “Mean OD490” value [15] was 0.199 and the “Percent Difference from 0 μg/mL Heparin Mean OD490” value [15] was 0.0%. The “Mean OD490” value [16] was 0.863, the “Percent Difference from 0 μg/mL Heparin OD490” value [16] was −3.9% and the “Mean OD490” value [17] was 0.830. For the same substance, the “Percent Difference from 0 μg/mL Heparin OD490” value [17] was 25.6%, the “Mean OD490” value [18] was 0.459 and the “Percent Difference from 0 μg/mL Heparin OD490” value [18] was 20.5%. For the same substance, the “Mean OD490” value [19] was 0.398, the “Percent Difference from 0 μg/mL Heparin Mean OD490” value [19] was −14.4% and the “Mean OD490” value [20] was 0.202. For the same substance, the “Percent Difference from 0 μg/mL Heparin Mean OD490” value [20] was 2.5%, the “Mean OD490” value [21] was 0.212 and the “Percent Difference from 0 μg/mL Heparin Mean OD490” value [21] was 6.5%. For the same substance, the “Mean OD490” value [22] was 0.938, the “Percent Difference from 0 μg/mL Heparin OD490” value [22] was 4.5% and the “Mean OD490” value [23] was 0.978. For the same substance, the “Percent Difference from 0 μg/mL Heparin OD490” value [23] was 48.0%, the “Mean OD490” value [24] was 0.583 and the “Percent Difference from 0 μg/mL Heparin OD490” value [24] was 53.0%. The “Mean OD490” value [25] was 0.433, the “Percent Difference from 0 μg/mL Heparin Mean OD490” value [25] was −6.9% and the “Mean OD490” value [26] was 0.196. For the same substance, the “Percent Difference from 0 μg/mL Heparin Mean OD490” value [26] was −0.5%, the “Mean OD490” value [27] was 0.188 and the “Percent Difference from 0 μg/mL Heparin Mean OD490” value [27] was −5.5%. For the same substance, the “Mean OD490” value [28] was 1.071, the “Percent Difference from 0 μg/mL Heparin OD490” value [28] was 19.3% and the “Mean OD490” value [29] was 0.992. The “Percent Difference from 0 μg/mL Heparin OD490” value [29] was 50.1%, the “Mean OD490” value [30] was 0.602 and the “Percent Difference from 0 μg/mL Heparin OD490 (increase in mitogenic activity)” value [30] was 58.0%. The “Percent Difference from 0 μg/mL Heparin OD490 (increase in mitogenic activity)” value (heparin 10 μg/mL, 10 ng/mL FGF-2, 72 hr, listed as heparin) was 58% and the “FGF-2 activity in the presence of heparin” value (increasing concentrations of heparin, FIG. 18) was “increased with increasing concentrations of heparin”.
